Source: publication PMC10492809, “A Bischler-Napieralski and homo-Mannich sequence enables diversified syntheses of sarpagine alkaloids and analogues” (Nature Communications, 2023)
Several values for one entry are separate records, joined by “and”; a condition that tells them apart may be missing. Equal values may be shown once. Read-outs that look alike come from different tables or passages of the source.

Tests used:
Format in all cases: cell-based
MDA-MB-231 cells [1] = assay: Measurement of glutathione levels
Description: Cells were plated at a density of 2 × 10^5 cells/well in 6-well plates and allowed to adhere overnight. After being treated as indicated, cells were collected and prepared for measurement of total intracellular glutathione (GSH + GSSG) using the assay kit (Beyotime, S0052) according to the manufacturer’s instructions. […]

MDA-MB-231 cells [2] = assay: Cell death manner assay (MTT, co-incubation with cell death inhibitors)
Description: [The source words this procedure for another cell line and reports this cell line under the same test.] To investigate the mechanism of 15ai in cancer cell proliferation inhibition, the manners of cell death were analyzed. The cell apoptosis inhibitor Z-VAD-FMK (Z-VAD), cell necrosis inhibitor Necrostatin-1 (Necro-1), ferroptosis inhibitor Ferrostatin-1 (Fer-1), and ROS inhibitor N-acetylcysteine (NAC) were purchased and stored at −20 °C. A375 cells were seeded with a density of 5000 cells/100 µL/well into 96 well plates. After 12 h, 15ai was added at different concentrations. Following that 10 µM Z-VAD, 10 µM Nerco-1, 10 µM Fer-1, and 5 mM NAC were added and co-incubated with 15ai, respectively, for 72 h. Then, 20 µL MTT solution (5 mg/mL) was added and incubated at 37 °C for an additional 4 h. Then, the supernatant was discarded, and 200 μL DMSO was added to dissolve the precipitate. After 15 min, the absorbance (OD490) was read on a microplate reader (SpectraMax i3x, Austria). In all experiments, three replicate wells were used for each drug concentration. Each assay was performed at least three times.

A375 = assay: MTT cell viability assay, A375
Description: (§1) All cell lines were cultured at 37 °C with 5% CO2 in a humidified incubator. HeLa cells were grown in MEM (Gibco) supplemented with 10% fetal bovine serum (FBS, Hyclone) and 1% penicillin/streptomycin (Gibco). MIA PaCa-2, MDA-MB-231, A549, MCF-7, A375 and BEAS-2B cells were grown in DMEM (Gibco) supplemented with 10% FBS and 1% penicillin/streptomycin. CT26, and HCT116 cells were grown in RPMI-1640 supplemented with 10% FBS and 1% penicillin/streptomycin. All cell lines were purchased from the National Collection of Authenticated Cell Cultures (China).
(§2) The antiproliferative activities of the prepared compounds against tested cell lines were evaluated using a standard (MTT)-based colorimetric assay. Cells were plated at a density of 3000 cells/well in 96-well plates and allowed to adhere overnight. Then cells were treated with varying concentrations of synthesized compounds for 72 h. At the end of treatment, 20 μL of thiazolyl blue tetrazolium bromide (MTT) solution (5 mg/mL) was added to each well. Cells were incubated for an additional 4 h at 37 °C and then the medium was removed and replaced with 200 μL of DMSO. The absorbance (OD490) was read on a microplate reader (SpectraMax i3x, Molecular Devices, US). In all experiments, three replicate wells were used for each drug concentration. Each assay was performed at least three times. The IC50 values were calculated by GraphPad Prism 9, which were the mean values derived from three independent experiments.

cancer cell lines = assay: In vitro cancer cell assays (antiproliferation, cell line not given); conditions: improvement over vellosimine (4)
Description: as §1, §2

CT26 = assay: MTT cell viability assay, CT26
Description: as §1, §2

A549 = assay: MTT cell viability assay, A549
Description: as §1, §2

Hela = assay: MTT cell viability assay, Hela
Description: as §1, §2

SLC7A11 = assay: Western blotting, SLC7A11 protein expression; conditions: 15ai 0, 2, 4 and 8 μM, 24 h
Description: Cells on 6-well plates were rinsed twice with cold PBS and lysed in RIPA lysis buffer (50 mM Tris (pH 7.4), 150 mM NaCl, 1% Triton X-100, 1% deoxycholicphenyl methylsulfonyl fluoride, 5.0 mM sodium pyrophosphate, […] leupeptin, 0.1 mM phenylmethylsulfonyl fluoride, and1 mM DTT) containing a protease inhibitor (PMSF) mixture at 1:100 dilution on ice for 30 min. The insoluble components of cell lysates were removed by centrifugation (4 °C, 12000 × g, 10 min), and protein concentrations were measured using a Pierce BCA protein assay kit. Proteins were separated by sodium dodecyl sulfate-polyacrylamide gel electrophoresis (SDS-PAGE) and transferred onto polyvinylidene difluoride (PVDF) membranes. Membranes were blocked using 5% skim milk in TBST and then incubated with diluted indicated primary antibodies: anti-GPX4 (1:1000 dilution, Proteintech, Cat No: 30388-1-AP), anti-SLC7A11 (1:1000 dilution, ABclonal, Cat No: A13685), anti-GAPDH (1:1000 dilution, Wanlei, Cat No: WL01114) at 4 °C with gentle shaking overnight. After washing five times (5 min each) with TBST, membranes were incubated with the HRP conjugated goat anti rabbit IgG (H + L) (1:5000 dilution, Wanlei, Cat No: WLA023) for 1 h at rt. Immunoreactive bands were visualized using an ECL detection kit (Wanlei, Cat No: WLA006) following the manufacturer’s instruction on the ChemiDoc system (BioRad, Shanghai, China).

MCF-7 = assay: MTT cell viability assay, MCF-7
Description: as §1, §2

## C=C=C1CN2[C@H]3C[C@H]1[C@H](C=O)[C@@H]2Cc1c3n(S(=O)(=O)c2ccc(C)cc2)c2ccc(Cl)cc12 [Compound 15ai]
MDA-MB-231 cells [1]; 15ai 4 μM per Fig. 4, single replicates
  GSH levels (% of control): 52.357 % of control and 54.35 % of control
MDA-MB-231 cells [1]; (15ai 2 μM per Fig. 4), single replicates
  GSH levels (% of control): 80.51 % of control and 78.85 % of control
MDA-MB-231 cells [1]; (15ai 8 μM per Fig. 4), single replicates
  GSH levels (% of control): 27.587 % of control and 22.5 % of control
MDA-MB-231 cells [1]; Homo sapiens, MDA-MB-231, column 2 (15ai 2 μM per Fig. 4), single replicates
  GSH level (% of control) at 2 µM: 84.6%
MDA-MB-231 cells [1]; Homo sapiens, MDA-MB-231, column 4 (15ai 4 μM per Fig. 4), single replicates
  GSH level (% of control) at 4 µM: 61.6%
MDA-MB-231 cells [1]; Homo sapiens, MDA-MB-231, column 8 (15ai 8 μM per Fig. 4), single replicates
  GSH level (% of control) at 8 µM: 23.2%
MDA-MB-231 cells [1]; result in words, 15ai 0, 2, 4 and 8 μM
  GSH levels: dose-dependently decreased
MDA-MB-231 cells [2]; Homo sapiens, MDA-MB-231, 72 h, read-out: Percentage of viability, Fer-1 / NAC experiment, 15ai 10 μM, Fer-1 10 μM, NAC 5 mM, 72 h, single replicates
  viability at 10 µM: 21.2%
MDA-MB-231 cells [2]; MDA-MB-231 cells, addition of apoptosis inhibitor Z-VAD-FMK or necroptosis inhibitor necrostatin-1
  reversal of 15ai-induced cell death by Z-VAD or Necro-1: could not reverse cell death
MDA-MB-231 cells [2]; co-existence of ferroptosis inhibitor Fer-1 or ROS inhibitor NAC
  rescue of cell viability by Fer-1 or NAC: remarkably rescued cell viability
A375; Homo sapiens, A-375, 72 h, MTT, 72 h, mean of at least three independent experiments, read-out: IC50 A375
  IC50: 2.64 µM
A375; Homo sapiens, A-375, source data sheet, single values of three experiments, read-out: MTT IC50 A375
  IC50: 2.78 µM
A375; source data sheet, single values of three experiments, read-out: MTT IC50 A375
  IC50: 1.96 µM and 3.18 µM
Cancer cell lines
  anticancer activity compared to vellosimine (4): tenfold-improved
CT26; Mus musculus, CT26, 72 h, MTT, 72 h, mean of at least three independent experiments, read-out: IC50 CT26
  IC50: 5.98 µM
CT26; Mus musculus, CT26, source data sheet, single values of three experiments, read-out: MTT IC50 CT-26
  IC50: 7.11 µM
CT26; source data sheet, single values of three experiments, read-out: MTT IC50 CT-26
  IC50: 5.83 µM and 4.99 µM
A549; Homo sapiens, A549, 72 h, MTT, 72 h, mean of at least three independent experiments, read-out: IC50 A549
  IC50: 13 µM
A549; Homo sapiens, A549, source data sheet, single values of three experiments, read-out: MTT IC50 A549
  IC50: 14.6 µM
A549; source data sheet, single values of three experiments, read-out: MTT IC50 A549
  IC50: 12.5 µM and 11.8 µM
Hela; Homo sapiens, HeLa, 72 h, MTT, 72 h, mean of at least three independent experiments, read-out: IC50 Hela
  IC50: 2.95 µM
Hela; Homo sapiens, HeLa, source data sheet, single values of three experiments, read-out: MTT IC50 Hela
  IC50: 3.02 µM
Hela; source data sheet, single values of three experiments, read-out: MTT IC50 Hela
  IC50: 2.02 µM and 3.81 µM
SLC7A11
  SLC7A11 level: dose-dependently decreased
MCF-7; Homo sapiens, MCF7, 72 h, MTT, 72 h, mean of at least three independent experiments, read-out: IC50 MCF-7
  IC50: 13.9 µM
MCF-7; Homo sapiens, MCF7, source data sheet, single values of three experiments, read-out: MTT IC50 MCF-7
  IC50: 16 µM
MCF-7; source data sheet, single values of three experiments, read-out: MTT IC50 MCF-7
  IC50: 12.8 µM and 12.9 µM
